Source: paper PMC5762309 (Oncotarget, 2017)
Like-named read-outs stand apart in the source and are kept apart here.

How the values were obtained:
BaF3-tel-KIT-D816V = assay: Anti-proliferation assay, transformed BaF3 cells; format: cell-based; settings: Mus musculus, 72 hours, CellTiter-Glo
From the text: (§1) Retroviral constructs for BaF3-KIT mutants were made based on the pMSCVpuro (Clontech) backbone. For TEL-KIT vector, the first 1 kb of human TEL gene with an artificial myristoylation sequence ([…]) was cloned into the pMSCVpuro retroviral vector, followed by a 3xFLAG tag sequence. Then, the kinase domain coding sequence of KIT was inserted in-frame between TEL and 3xFLAG sequences. For full-length expression vectors, the coding sequences of KIT variants were directly cloned in pMSCVpuro vector with a 3xFLAG tag at the C-terminal end. All mutagenesis was performed using the QuikChange Site-Directed Mutagenesis Kit (Stratagene) following the manufacturer’s instructions. Retrovirus was packaged in HEK293T cells by transfecting KIT-containing MSCV vectors together with two helper plasmids. Virus supernatants were harvested 48 h after transfection and filtered before infection. Then BaF3 cells were infected with harvested virus supernatants using spinoculation protocol, and stable cell lines were obtained by puromycin selection for 48 h. The IL-3 concentrations in the culture medium were gradually withdrawn until cells were able to grow in the absence of IL-3.
(§2) Cells were grown in 96-well culture plates (2500/well). The compounds of various concentrations were added into the plates. Cell proliferation was determined after treatment with compounds for 72 hours. Cell viability was measured using the CellTiter–Glo assay (Promega, USA), according to the manufacturer’s instructions, and luminescence was measured in a multi-label reader (Envision, PerkinElmer, USA). Data were normalized to control groups (DMSO) and represented by the mean of three independent measurements with standard error <20%. GI50 values were calculated using Prism 5.0 (GraphPad Software, San Diego, CA).

BaF3-tel-KIT-L576P = assay: Anti-proliferation assay, transformed BaF3 cells; format: cell-based; settings: Mus musculus, 72 hours, CellTiter-Glo
From the text: as §1, §2

BaF3-tel-KIT-N822K = assay: Anti-proliferation assay, transformed BaF3 cells; format: cell-based; settings: Mus musculus, 72 hours, CellTiter-Glo
From the text: as §1, §2

BaF3-tel-KIT-T670I-V559D = assay: Anti-proliferation assay, transformed BaF3 cells; format: cell-based; settings: Mus musculus, 72 hours, CellTiter-Glo
From the text: as §1, §2

BaF3-tel-KIT-V559D = assay: Anti-proliferation assay, transformed BaF3 cells; format: cell-based; settings: Mus musculus, 72 hours, CellTiter-Glo
From the text: as §1, §2

[1] = system: CSF1R transformed BaF3 cells; assay: Anti-proliferation assay, transformed BaF3 cells; format: cell-based; settings: Mus musculus
Protocol: (§3) Then we used the DiscoverX’s KINOMEScan platform to further examine CHMFL-KIT-031’s kinome-wide selectivity profile. […] Besides the strong binding to V559D, it also bound strongly to KIT wt, L576P and A829P.
as §2

BMPR2 = biological target: T1, BMPR2 (Homo sapiens, UniProt Q13873); assay: KINOMEScan; format: binding; set-up: dose or concentration left out as unconfirmed
T1 construct: purchased DiscoverX KINOMEscan

BTK = biological target: T2, BTK (Homo sapiens, UniProt Q06187); assay: KINOMEScan; format: binding; set-up: dose or concentration left out as unconfirmed
T2 construct: purchased DiscoverX KINOMEscan

CDC2L5 = biological target: T3, CDC2L5 (Homo sapiens, UniProt Q14004); assay: KINOMEScan; format: binding; settings: Concentrations 1 µM
T3 construct: purchased DiscoverX KINOMEscan
From the text: as §3

CDK8 = biological target: T4, CDK8 (Homo sapiens, UniProt P49336); assay: KINOMEScan; format: binding; set-up: dose or concentration left out as unconfirmed
T4 construct: purchased DiscoverX KINOMEscan

CHEK1 = biological target: T5, CHEK1 (Homo sapiens, UniProt O14757); assay: KINOMEScan; format: binding; set-up: dose or concentration left out as unconfirmed
T5 construct: purchased DiscoverX KINOMEscan

CIT = biological target: T6, CIT (Homo sapiens, UniProt O14578); assay: KINOMEScan; format: binding; set-up: dose or concentration left out as unconfirmed
T6 construct: purchased DiscoverX KINOMEscan

CSK = biological target: T7, CSK (Homo sapiens, UniProt P41240); assay: KINOMEScan; format: binding; set-up: dose or concentration left out as unconfirmed
T7 construct: purchased DiscoverX KINOMEscan

CSNK1G1 = biological target: T8, CSNK1G1 (Homo sapiens, UniProt Q9HCP0); assay: KINOMEScan; format: binding; set-up: dose or concentration left out as unconfirmed
T8 construct: purchased DiscoverX KINOMEscan

JNK3 = biological target: T9, JNK3 (Homo sapiens, UniProt P53779); assay: KINOMEScan; format: binding; set-up: dose or concentration left out as unconfirmed
T9 construct: purchased DiscoverX KINOMEscan

LATS2 = biological target: T10, LATS2 (Homo sapiens, UniProt Q9NRM7); assay: KINOMEScan; format: binding; set-up: dose or concentration left out as unconfirmed
T10 construct: purchased DiscoverX KINOMEscan

MARK4 = biological target: T11, MARK4 (Homo sapiens, UniProt Q96L34); assay: KINOMEScan; format: binding; set-up: dose or concentration left out as unconfirmed
T11 construct: purchased DiscoverX KINOMEscan

MET(Y1235D) = biological target: T12, MET(Y1235D) (Homo sapiens, UniProt P08581, Y1235D); assay: KINOMEScan; format: binding; set-up: dose or concentration left out as unconfirmed
T12 construct: purchased DiscoverX KINOMEscan

PRKR = biological target: T13, PRKR (Homo sapiens, UniProt P19525); assay: KINOMEScan; format: binding; set-up: dose or concentration left out as unconfirmed
T13 construct: purchased DiscoverX KINOMEscan

[2] = biological target: T14, RSK4(Kin.Dom.1-N-terminal) (Homo sapiens, UniProt Q9UK32); assay: KINOMEScan; format: binding
T14 construct: RSK4(Kin.Dom.1-N-terminal); purchased DiscoverX KINOMEscan

SIK = biological target: T15, SIK (Homo sapiens, UniProt P57059); assay: KINOMEScan; format: binding; set-up: dose or concentration left out as unconfirmed
T15 construct: purchased DiscoverX KINOMEscan

SNARK = biological target: T16, SNARK (Homo sapiens, UniProt Q9H093); assay: KINOMEScan; format: binding; set-up: dose or concentration left out as unconfirmed
T16 construct: purchased DiscoverX KINOMEscan

KIT V654A = KIT V654A (Homo sapiens, UniProt P10721, V654A); assay: KIT auto-phosphorylation in transformed BaF3 cells; settings: 2h
KIT wt = KIT wt (Homo sapiens, UniProt P10721); assay: KIT auto-phosphorylation in parental Colo320DM cells; format: cell-based; set-up: Colo320DM cells which express wt KIT kinase; endogenous in cells; host or cells: Colo320DM, SCF-stimulated
From the text: In order to better define CHMFL-KIT-031’s inhibitory effect against KIT V559D mutant, we then tested it with purified KIT wt/V559D kinase protein by ADP-Glo assay (Figure 2A). […] We also transformed and overexpressed KIT V559D transiently into Colo320DM cells which express wt KIT kinase and tested CHMFL-KIT-031’s inhibitory effects for the auto-phosphorylation of KIT Y703, 719 and Y823 sites.

Sequence of KIT V654A (P10721 546-976 V654A): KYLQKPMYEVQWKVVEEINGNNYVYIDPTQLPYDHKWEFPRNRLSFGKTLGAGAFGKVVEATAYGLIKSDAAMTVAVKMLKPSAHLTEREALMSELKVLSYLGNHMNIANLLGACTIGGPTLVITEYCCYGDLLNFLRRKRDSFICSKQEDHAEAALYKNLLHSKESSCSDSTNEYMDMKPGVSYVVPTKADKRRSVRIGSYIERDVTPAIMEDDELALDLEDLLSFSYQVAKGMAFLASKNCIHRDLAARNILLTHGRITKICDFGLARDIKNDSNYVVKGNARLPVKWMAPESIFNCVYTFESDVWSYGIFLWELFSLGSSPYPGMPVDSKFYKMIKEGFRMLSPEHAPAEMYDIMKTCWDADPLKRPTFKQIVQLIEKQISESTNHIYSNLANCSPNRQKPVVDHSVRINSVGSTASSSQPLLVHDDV
Sequence of KIT wt (P10721 26-976): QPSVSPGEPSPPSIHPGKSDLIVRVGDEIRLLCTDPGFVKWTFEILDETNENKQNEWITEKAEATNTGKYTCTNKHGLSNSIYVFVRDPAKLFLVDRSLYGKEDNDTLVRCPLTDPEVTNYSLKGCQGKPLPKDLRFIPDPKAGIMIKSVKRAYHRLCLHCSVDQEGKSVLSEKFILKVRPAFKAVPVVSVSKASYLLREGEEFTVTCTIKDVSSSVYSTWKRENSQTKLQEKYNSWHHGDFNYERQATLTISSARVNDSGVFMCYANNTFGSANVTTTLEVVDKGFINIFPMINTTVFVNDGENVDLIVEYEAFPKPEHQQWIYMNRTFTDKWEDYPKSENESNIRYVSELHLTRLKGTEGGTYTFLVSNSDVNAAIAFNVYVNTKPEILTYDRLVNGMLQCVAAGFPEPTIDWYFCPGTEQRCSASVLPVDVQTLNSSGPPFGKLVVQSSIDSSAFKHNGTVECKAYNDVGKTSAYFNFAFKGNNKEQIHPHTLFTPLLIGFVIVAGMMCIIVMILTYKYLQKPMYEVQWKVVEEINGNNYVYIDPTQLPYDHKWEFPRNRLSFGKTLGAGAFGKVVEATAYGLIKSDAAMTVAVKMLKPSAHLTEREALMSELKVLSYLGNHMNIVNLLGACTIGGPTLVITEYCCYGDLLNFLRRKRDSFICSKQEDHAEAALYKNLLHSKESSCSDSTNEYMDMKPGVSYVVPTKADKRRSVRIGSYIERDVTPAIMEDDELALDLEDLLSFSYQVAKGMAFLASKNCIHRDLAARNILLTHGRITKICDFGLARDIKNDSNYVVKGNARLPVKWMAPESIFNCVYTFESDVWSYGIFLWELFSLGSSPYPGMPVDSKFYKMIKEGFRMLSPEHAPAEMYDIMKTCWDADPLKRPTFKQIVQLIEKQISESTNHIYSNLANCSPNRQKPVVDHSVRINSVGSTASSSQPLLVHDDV
T16 sequence (Q9H093 whole entry): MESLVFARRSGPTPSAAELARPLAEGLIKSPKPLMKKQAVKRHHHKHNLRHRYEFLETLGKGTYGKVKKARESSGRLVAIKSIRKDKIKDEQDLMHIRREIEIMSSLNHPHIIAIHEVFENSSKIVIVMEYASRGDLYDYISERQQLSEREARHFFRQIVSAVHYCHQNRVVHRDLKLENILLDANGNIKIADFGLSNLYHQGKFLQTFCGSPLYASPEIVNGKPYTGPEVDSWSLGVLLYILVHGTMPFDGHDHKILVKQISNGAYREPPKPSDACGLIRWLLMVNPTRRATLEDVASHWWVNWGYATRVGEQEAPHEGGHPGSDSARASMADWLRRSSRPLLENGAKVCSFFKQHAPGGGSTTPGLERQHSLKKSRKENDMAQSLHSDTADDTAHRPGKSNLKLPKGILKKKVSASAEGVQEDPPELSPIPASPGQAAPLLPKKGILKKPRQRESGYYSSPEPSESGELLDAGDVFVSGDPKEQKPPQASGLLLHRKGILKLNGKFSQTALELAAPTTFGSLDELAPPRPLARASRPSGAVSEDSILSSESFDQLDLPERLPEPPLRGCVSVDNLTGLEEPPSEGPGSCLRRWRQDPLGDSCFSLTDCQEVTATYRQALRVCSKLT
T6 sequence (O14578 whole entry): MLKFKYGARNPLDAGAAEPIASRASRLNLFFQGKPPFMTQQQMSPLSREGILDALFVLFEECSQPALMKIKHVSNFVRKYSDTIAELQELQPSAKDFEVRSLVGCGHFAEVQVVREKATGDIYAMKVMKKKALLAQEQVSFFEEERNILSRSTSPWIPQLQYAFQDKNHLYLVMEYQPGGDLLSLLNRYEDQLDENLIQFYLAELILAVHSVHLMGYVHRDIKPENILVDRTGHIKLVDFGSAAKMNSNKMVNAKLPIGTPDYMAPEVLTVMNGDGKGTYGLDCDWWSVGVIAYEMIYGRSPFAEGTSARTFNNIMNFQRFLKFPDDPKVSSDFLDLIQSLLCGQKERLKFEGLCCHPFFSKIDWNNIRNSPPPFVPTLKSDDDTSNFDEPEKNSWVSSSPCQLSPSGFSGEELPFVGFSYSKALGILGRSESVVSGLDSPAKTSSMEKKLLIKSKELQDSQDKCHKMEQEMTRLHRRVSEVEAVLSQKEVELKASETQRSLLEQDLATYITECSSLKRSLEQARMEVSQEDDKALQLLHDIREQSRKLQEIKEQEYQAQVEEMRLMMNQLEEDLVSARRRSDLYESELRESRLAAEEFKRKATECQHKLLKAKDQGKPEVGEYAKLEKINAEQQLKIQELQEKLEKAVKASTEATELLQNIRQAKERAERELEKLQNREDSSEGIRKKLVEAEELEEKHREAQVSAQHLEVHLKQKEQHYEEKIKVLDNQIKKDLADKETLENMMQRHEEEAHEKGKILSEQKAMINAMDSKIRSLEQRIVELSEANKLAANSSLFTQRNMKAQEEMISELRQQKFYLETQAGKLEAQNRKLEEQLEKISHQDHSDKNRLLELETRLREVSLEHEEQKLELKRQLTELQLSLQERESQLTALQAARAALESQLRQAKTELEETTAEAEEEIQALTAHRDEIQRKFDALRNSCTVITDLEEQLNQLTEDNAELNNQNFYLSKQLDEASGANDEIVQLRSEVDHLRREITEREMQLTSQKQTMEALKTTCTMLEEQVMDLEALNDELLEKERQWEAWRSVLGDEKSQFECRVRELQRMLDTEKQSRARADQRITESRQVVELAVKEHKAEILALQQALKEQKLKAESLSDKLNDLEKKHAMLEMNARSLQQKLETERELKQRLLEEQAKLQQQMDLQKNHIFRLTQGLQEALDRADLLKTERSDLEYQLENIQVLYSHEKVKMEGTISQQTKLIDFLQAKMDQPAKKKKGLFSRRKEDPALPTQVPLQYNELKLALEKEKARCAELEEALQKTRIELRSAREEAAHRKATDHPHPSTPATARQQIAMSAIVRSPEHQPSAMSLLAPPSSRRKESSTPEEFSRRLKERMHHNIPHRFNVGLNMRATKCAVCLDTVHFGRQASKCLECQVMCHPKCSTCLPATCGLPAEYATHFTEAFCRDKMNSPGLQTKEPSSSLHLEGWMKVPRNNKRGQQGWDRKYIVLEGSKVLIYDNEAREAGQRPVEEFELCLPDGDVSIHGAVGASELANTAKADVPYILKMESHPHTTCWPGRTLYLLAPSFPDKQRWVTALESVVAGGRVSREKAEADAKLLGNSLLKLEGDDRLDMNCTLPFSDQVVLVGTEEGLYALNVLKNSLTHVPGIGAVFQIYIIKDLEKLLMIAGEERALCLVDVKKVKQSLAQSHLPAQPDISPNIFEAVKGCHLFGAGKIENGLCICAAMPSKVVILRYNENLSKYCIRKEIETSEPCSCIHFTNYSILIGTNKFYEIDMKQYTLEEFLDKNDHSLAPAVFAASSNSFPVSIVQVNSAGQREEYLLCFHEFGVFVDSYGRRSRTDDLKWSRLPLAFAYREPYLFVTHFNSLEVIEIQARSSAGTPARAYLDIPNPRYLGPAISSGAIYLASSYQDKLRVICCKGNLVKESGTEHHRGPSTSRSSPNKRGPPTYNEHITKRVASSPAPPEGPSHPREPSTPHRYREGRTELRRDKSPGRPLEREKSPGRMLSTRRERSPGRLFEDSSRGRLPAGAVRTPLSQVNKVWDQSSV
T7 sequence (P41240 whole entry): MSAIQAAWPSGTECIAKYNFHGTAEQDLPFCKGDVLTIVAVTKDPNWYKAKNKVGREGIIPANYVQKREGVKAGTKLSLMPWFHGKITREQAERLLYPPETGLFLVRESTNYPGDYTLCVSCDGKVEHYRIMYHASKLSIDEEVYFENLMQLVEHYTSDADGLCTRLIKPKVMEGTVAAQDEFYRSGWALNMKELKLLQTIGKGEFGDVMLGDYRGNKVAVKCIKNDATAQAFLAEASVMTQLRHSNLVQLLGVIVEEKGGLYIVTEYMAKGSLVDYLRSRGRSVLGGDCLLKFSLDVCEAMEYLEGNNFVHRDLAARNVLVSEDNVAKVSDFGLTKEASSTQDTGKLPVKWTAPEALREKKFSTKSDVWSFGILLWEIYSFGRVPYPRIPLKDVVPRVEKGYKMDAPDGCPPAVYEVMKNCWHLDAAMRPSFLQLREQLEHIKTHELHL
T5 sequence (O14757 whole entry): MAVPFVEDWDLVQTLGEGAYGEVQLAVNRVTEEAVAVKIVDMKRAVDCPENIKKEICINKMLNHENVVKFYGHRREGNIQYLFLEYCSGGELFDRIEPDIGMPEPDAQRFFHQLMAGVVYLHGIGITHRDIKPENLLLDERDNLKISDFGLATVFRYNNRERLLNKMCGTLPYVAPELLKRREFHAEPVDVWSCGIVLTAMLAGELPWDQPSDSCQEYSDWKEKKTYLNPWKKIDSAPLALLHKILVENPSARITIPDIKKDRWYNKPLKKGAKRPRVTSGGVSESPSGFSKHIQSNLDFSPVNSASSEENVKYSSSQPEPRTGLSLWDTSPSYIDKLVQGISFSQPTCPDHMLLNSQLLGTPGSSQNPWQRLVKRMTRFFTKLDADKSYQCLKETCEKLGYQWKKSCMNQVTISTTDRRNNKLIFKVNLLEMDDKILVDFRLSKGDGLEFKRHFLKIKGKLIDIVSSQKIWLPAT

COc1cc(C(=O)NCC(=O)Nc2ccc3c(/C=C/c4ccccn4)n[nH]c3c2)cc(OC)c1OC [CHMFL-KIT-031]
GI50 (BaF3-tel-KIT-D816V): > 10000 nM
GI50 (BaF3-tel-KIT-L576P): 2200 nM
GI50 (BaF3-tel-KIT-N822K): > 10000 nM
GI50 (BaF3-tel-KIT-T670I-V559D): > 10000 nM
GI50 (BaF3-tel-KIT-V559D): 25 nM
GI50 [1]: 2400 nM
KINOMEScan profiling value (BMPR2): 100
KINOMEScan profiling value (BTK): 100
KINOMEScan profiling value (CDC2L5): 97
KINOMEScan profiling value (CDK8): 100
KINOMEScan profiling value (CHEK1): 97
KINOMEScan profiling value (CIT): 64
KINOMEScan profiling value (CSK): 87
KINOMEScan profiling value (CSNK1G1): 100
KINOMEScan profiling value (JNK3): 99
KINOMEScan profiling value (LATS2): 100
KINOMEScan profiling value (MARK4): 96
KINOMEScan profiling value (MET(Y1235D)): 100
KINOMEScan profiling value (PRKR): 97
KINOMEScan profiling value [2]: 97
KINOMEScan profiling value (SIK): 100
KINOMEScan profiling value (SNARK): 100
EC50 (KIT V654A; EC50 pY703 auto-phosphorylation): 508 nM
EC50 (KIT V654A; EC50 pY719 auto-phosphorylation): 2200 nM
EC50 (KIT V654A; EC50 pY823 auto-phosphorylation): 4600 nM
EC50 (KIT wt; COLO 320DM (KIT wt), SCF stimulation, read-out: EC50 P-CKIT Y719): 5620 nM
EC50 (KIT wt; COLO 320DM (KIT wt), SCF stimulation, read-out: EC50 P-CKIT Y823): 9700 nM
EC50 (KIT wt; in cell, KIT wt, read-out: EC50 pY703): 2000 nM
